Assay results published in US20250186405A1, “Compound For Use In Treating Narcolepsy” (Alkermes, Inc., priority 2023, published 2025).
Where two headings read alike, the source gives them in different places.

Test: Part 2 MAD: plasma pharmacokinetics, once daily for 10 days
Format: in vivo, human
Conditions: for Cmax / AUC(0-t) / concentration at 8 h / Tmax / half-life / Vd/F: oral; for AUC(0-t): read-out: AUC0-24, ss; for concentration at 8 h: read-out: C8 (concentration at 8-hour postdose); for Vd/F: read-out: Vz/F
Description: Part 2 of the study is a MAD evaluation in healthy subjects consisting of 4 cohorts: Cohorts 1-4 received powder-in-capsule or matching placebo. Dose levels were as follows:
Blood samples (up to 5 mL per sample) were collected for PK analysis of Compound A and its metabolite(s). The actual time of sample collection was recorded. The PK samples of the subjects randomized to placebo treatment were not analyzed. Any remaining plasma PK samples were used to explore the presence of any additional metabolites and/or biomarkers.
Plasma and urine concentrations of Compound A and its metabolite(s) were measured using a validated high-performance liquid chromatography with tandem mass spectrometry.
The plasma PK parameters of Compound A and its metabolite(s) were determined from the plasma concentration-time profiles for all evaluable subjects. Actual sampling times, rather than scheduled sampling times, were used in all computations involving sampling times. The below lower limit of quantitation concentrations were set to zero prior to PK parameter estimation.
The PK population was used for summaries of plasma and urine Compound A and its metabolite(s) concentrations and for analyses, summaries, and listing of PK parameters. Accumulation ratio (Day 10/Day 1) for Cmax and AUC0-24 was estimated with 90% CIs using a linear fixed effects model on log-transformed parameters. Dose effect was assessed using a linear fixed effects model on log-transformed t1/2. Dose proportionality was assessed using a power model on Cmax and AUC0-24 on Day 1 and Day 10 separately. Within-subject and total standard deviations for log-transformed Cmax and AUC0-24 were estimated within a linear mixed effects framework.

[1] = human, plasma, 3 mg, Day 1, geometric mean
[2] = human, plasma, 3 mg, Day 10, geometric mean
[3] = human, plasma, 8 mg, Day 1, geometric mean
[4] = human, plasma, 8 mg, Day 10, geometric mean
[5] = human, plasma, 15 mg, Day 1, geometric mean
[6] = human, plasma, 15 mg, Day 10, geometric mean
[7] = human, plasma, 25 mg, Day 1, geometric mean
[8] = human, plasma, 25 mg, Day 10, geometric mean

`CS(=O)(=O)N[C@H]1CCCN2C(=O)COc3ccccc3C3CCC(CC3)OCC12` (stereo partly drawn) [Compound A, N-[(4S,4aR,7α,10α)-1,2,3,4,4a,5,7,8,9,10,16,17-dodecahydro-17-oxo-7,10-ethanopyrido[1,2-d][1,7,4]benzodioxaazacyclotridecin-4-yl]methanesulfonamide] gave an Accumulation ratio (Day 10/Day 1) AUC0-24 (3 mg) of 1.36, an Accumulation ratio (Day 10/Day 1) Cmax (3 mg) of 1.68 and a CL/F (3 mg, Day 10, geometric mean) of 62.0 L/h. For the same molecule, the Ctrough (3 mg, Day 10, geometric mean) was 0.495 ng/mL, the Accumulation ratio (Day 10/Day 1) AUC0-24 (8 mg) was 1.36 and the Accumulation ratio (Day 10/Day 1) Cmax (8 mg) was 1.38. It also gave a CL/F (8 mg, Day 10, geometric mean) of 55.7 L/h, a Ctrough (8 mg, Day 10, geometric mean) of 2.07 ng/mL and an Accumulation ratio (Day 10/Day 1) AUC0-24 (15 mg) of 1.23. The Accumulation ratio (Day 10/Day 1) Cmax (15 mg) was 1.15, the CL/F (15 mg, Day 10, geometric mean) was 84.4 L/h and the Ctrough (15 mg, Day 10, geometric mean) was 2.06 ng/mL. For the same molecule, the Accumulation ratio (Day 10/Day 1) AUC0-24 (25 mg) was 1.02, the Accumulation ratio (Day 10/Day 1) Cmax (25 mg) was 1.32 and the CL/F (25 mg, Day 10, geometric mean) was 108 L/h. For the same molecule, the Ctrough (25 mg, Day 10, geometric mean) was 4.51 ng/mL, the Cmax [1] was 5.6 ng/mL and the AUC(0-t) [1] was 35.5 ng·h/mL. The concentration at 8 h [1] was 1.21 ng/mL, the Tmax (human, plasma, 3 mg, Day 1, median, read-out: Tmax) was 1.75 h and the Cmax [2] was 9.38 ng/mL. For the same molecule, the half-life [2] was 9.63 h, the AUC(0-t) [2] was 48.4 ng·h/mL and the concentration at 8 h [2] was 1.39 ng/mL. For the same molecule, the Tmax (human, plasma, 3 mg, Day 10, median, read-out: Tmax) was 1.5 h, the Cmax [3] was 16 ng/mL and the AUC(0-t) [3] was 104 ng·h/mL. For the same molecule, the concentration at 8 h [3] was 3.89 ng/mL, the Tmax (human, plasma, 8 mg, Day 1, median, read-out: Tmax) was 1.75 h and the Cmax [4] was 22.1 ng/mL. The half-life [4] was 7.66 h, the AUC(0-t) [4] was 141 ng·h/mL and the concentration at 8 h [4] was 4.6 ng/mL. The Tmax (human, plasma, 8 mg, Day 10, median, read-out: Tmax) was 1.75 h, the Cmax [5] was 25.2 ng/mL and the concentration at 8 h [5] was 3.41 ng/mL. It also gave a Tmax (human, plasma, 15 mg, Day 1, median, read-out: Tmax) of 1.5 h, a Cmax [6] of 28.9 ng/mL and a half-life [6] of 14 h. For the same molecule, the concentration at 8 h [6] was 4.62 ng/mL, the Tmax (human, plasma, 15 mg, Day 10, median, read-out: Tmax) was 1.75 h and the Tmax (human, plasma, 25 mg, 3, 8, 15 and 25 mg, both Day 1 and Day 10 (range 1.0 to 6.0), read-out: median Tmax) was 1.75 h. It also gave a Cmax [7] of 28 ng/mL, a concentration at 8 h [7] of 7.35 ng/mL and a Tmax (human, plasma, 25 mg, Day 1, median, read-out: Tmax) of 1.25 h. It also gave a Cmax [8] of 36.9 ng/mL, a half-life [8] of 15.9 h and a concentration at 8 h [8] of 7.39 ng/mL. It also gave a Tmax (human, plasma, 25 mg, Day 10, median, read-out: Tmax) of 1.5 h, a Vd/F [2] of 862 L and a Vd/F [4] of 616 L. It also gave a Vd/F [6] of 1700 L, a Vd/F [8] of 2480 L and a half-life at 10 days (human, plasma, po, Day 10, 3 to 25 mg, read-out: terminal half-life following multiple oral dosing, range) of 8 to 16 h. The “steady state expected to be achieved by” value (once daily dosing, from half-life) was at most 4 days.
